Results from ChEMBL document CHEMBL4052759, “Discovery of DS79182026: A potent orally active hepcidin production inhibitor” (Bioorg Med Chem Lett, 2017).

Legend:
[1] = molecular target: Fibroblast growth factor receptor 1 (Homo sapiens) (UniProt P11362); assay: Inhibition of FGFR1 (unknown origin) at 0.078 uM relative to control
[2] = molecular target: Protein kinase C beta type (Homo sapiens) (UniProt P05771); assay: Inhibition of PKC-beta2 (unknown origin) at 0.078 uM relative to control
[3] = molecular target: T1, Protein kinase C zeta type (Homo sapiens) (UniProt Q05513); assay: Inhibition of PKC-zeta (unknown origin) at 0.49 uM relative to control
T1 sequence (whole entry): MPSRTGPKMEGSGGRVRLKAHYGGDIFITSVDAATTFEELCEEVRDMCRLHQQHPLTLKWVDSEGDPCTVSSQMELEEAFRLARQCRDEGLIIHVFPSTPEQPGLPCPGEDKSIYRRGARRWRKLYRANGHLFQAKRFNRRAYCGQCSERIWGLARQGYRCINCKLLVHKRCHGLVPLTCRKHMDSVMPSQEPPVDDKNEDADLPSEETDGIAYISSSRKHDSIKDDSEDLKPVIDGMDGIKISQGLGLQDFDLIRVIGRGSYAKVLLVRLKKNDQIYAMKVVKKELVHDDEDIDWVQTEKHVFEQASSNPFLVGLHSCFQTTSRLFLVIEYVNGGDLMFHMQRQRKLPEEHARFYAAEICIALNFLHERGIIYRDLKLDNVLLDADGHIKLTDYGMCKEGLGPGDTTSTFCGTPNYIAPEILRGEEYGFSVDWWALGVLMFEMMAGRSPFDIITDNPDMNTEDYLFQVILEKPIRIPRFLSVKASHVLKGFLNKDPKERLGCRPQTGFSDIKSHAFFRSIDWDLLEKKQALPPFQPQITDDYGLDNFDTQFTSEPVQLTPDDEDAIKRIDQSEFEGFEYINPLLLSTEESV

[4] = molecular target: Casein kinase I isoform gamma-3 (Homo sapiens) (UniProt Q9Y6M4); assay: Inhibition of CSNK1G3 (unknown origin) at 0.49 uM relative to control
[5] = molecular target: Serine/threonine-protein kinase 24 (Homo sapiens) (UniProt Q9Y6E0); assay: Inhibition of MST3 (unknown origin) at 0.49 uM relative to control
[6] = molecular target: Tyrosine-protein kinase Blk (Homo sapiens) (UniProt P51451); assay: Inhibition of BLK (unknown origin) at 0.49 uM relative to control
[7] = molecular target: Ephrin type-B receptor 2 (Homo sapiens) (UniProt P29323); assay: Inhibition of EPHB2 (unknown origin) at 0.49 uM relative to control
[8] = molecular target: Hepatocyte growth factor receptor (Homo sapiens) (UniProt P08581); assay: Inhibition of MET (unknown origin) at 0.49 uM relative to control
[9] = molecular target: T2, Calcium/calmodulin-dependent protein kinase type IV (Homo sapiens) (UniProt Q16566); assay: Inhibition of CAMK4 (unknown origin) at 0.49 uM relative to control
T2 sequence (whole entry): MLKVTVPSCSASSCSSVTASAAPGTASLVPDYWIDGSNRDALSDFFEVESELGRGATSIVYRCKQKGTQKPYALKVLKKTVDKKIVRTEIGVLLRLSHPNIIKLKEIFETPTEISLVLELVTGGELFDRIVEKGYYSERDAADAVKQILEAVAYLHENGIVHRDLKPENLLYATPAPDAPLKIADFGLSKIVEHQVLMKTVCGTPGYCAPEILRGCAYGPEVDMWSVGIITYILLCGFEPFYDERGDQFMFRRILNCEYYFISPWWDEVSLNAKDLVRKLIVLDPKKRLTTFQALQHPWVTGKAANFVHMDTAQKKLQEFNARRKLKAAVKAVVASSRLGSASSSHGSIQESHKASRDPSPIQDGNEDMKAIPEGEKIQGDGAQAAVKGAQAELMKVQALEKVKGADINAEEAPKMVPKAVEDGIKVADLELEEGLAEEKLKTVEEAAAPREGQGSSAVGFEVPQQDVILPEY

[10] = molecular target: Serine/threonine-protein kinase D1 (Homo sapiens) (UniProt Q15139); assay: Inhibition of PKD1 (unknown origin) at 0.49 uM relative to control
[11] = molecular target: Mitogen-activated protein kinase kinase kinase kinase 5 (Homo sapiens) (UniProt Q9Y4K4); assay: Inhibition of KHS1 (unknown origin) at 0.49 uM relative to control
[12] = system: Proto-oncogene tyrosine-protein kinase receptor Ret (Homo sapiens), P07949 [Y791F]; assay: Inhibition of RET Y791F mutant (unknown origin) at 0.45 uM relative to control
[13] = molecular target: Platelet-derived growth factor receptor beta (Homo sapiens) (UniProt P09619); assay: Inhibition of PDGFR beta (unknown origin) at 0.45 uM relative to control
[14] = molecular target: Ephrin type-A receptor 5 (Homo sapiens) (UniProt P54756); assay: Inhibition of EPHA5 (unknown origin) at 0.45 uM relative to control
[15] = Metabolic stability in mouse liver microsomes assessed as […] by measuring parent compound remaining at 1 uM after 0.5 hrs by LC-MS/MS analysis; type: ADME; conditions: read-out: Stability
[16] = molecular target: Leukocyte tyrosine kinase receptor (Homo sapiens) (UniProt P29376); assay: Inhibition of LTK (unknown origin) at 0.45 uM relative to control
[17] = molecular target: Calcium/calmodulin-dependent protein kinase type 1D (Homo sapiens) (UniProt Q8IU85); assay: Inhibition of CamK1d (unknown origin) at 0.45 uM relative to control
[18] = molecular target: Tyrosine-protein kinase FRK (Homo sapiens) (UniProt P42685); assay: Inhibition of FRK (unknown origin) at 0.45 uM relative to control
[19] = molecular target: Inhibitor of nuclear factor kappa-B kinase subunit beta (Homo sapiens) (UniProt O14920); assay: Inhibition of IKK-beta (unknown origin) at 0.45 uM relative to control
[20] = molecular target: Tyrosine-protein kinase Fyn (Homo sapiens) (UniProt P06241); assay: Inhibition of FYN (unknown origin) at 0.45 uM relative to control
[21] = molecular target: Protein kinase C theta type (Homo sapiens) (UniProt Q04759); assay: Inhibition of PKC-theta (unknown origin) at 0.45 uM relative to control

`COC(=O)Nc1noc2cc(-c3c(-c4ccccn4)n[nH]c3C)ccc12` gave an inhibition [1] of -2.7% and an inhibition [2] of 8.7%.
Molecule `Cc1[nH]nc(C2CC2)c1-c1ccc2c(NC(=O)C3CC3)noc2c1` has an inhibition [3] of 5%, an inhibition [4] of 2.3% and an inhibition [5] of 2.3%. For the same molecule, the inhibition [6] was 1%, the inhibition [7] was 5.3% and the inhibition [8] was 7.3%. It also gave an inhibition [9] of 2.3%, an inhibition [10] of 1.7% and an inhibition [11] of 6.3%.
For `Cc1n[nH]c(C)c1-c1ccc2c(NC(=O)c3ccc(N4CCN(C)CC4)cc3)n[nH]c2c1`, the inhibition [12] was 58.7%, the inhibition [13] was 78.3% and the inhibition [14] was 3%. It also gave a remaining at 0.5 h, 1 µM [15] of 94%, an inhibition [16] of 0% and an inhibition [17] of 0.7%. It also gave an inhibition [18] of 31.3%, an inhibition [19] of 2.3% and an inhibition [20] of 46%. The inhibition [21] was 3%.
